Assay results from patent publication US20230407243A1, “GENETIC PLATFORM TO INVESTIGATE THE FUNCTIONS OF BACTERIAL DRUG EFFLUX PUMPS” (priority 2022, published 2023).

Tests used:
Assay type in all cases: cell-based, Escherichia coli
EKO-35 araC::mdtBC = experiment: MIC susceptibility profiling, efflux platform; conditions: for Fold change of MICs: EKO-35 araC::mdtBC compared to EKO-35; for Minimum Inhibitory Concentration, EKO-35 araC::mdtBC: Table 13B, non-porinated, technical duplicate
How it was run: (§1)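 OD600 read-out, background-corrected, after 18 h at 37 °C with shaking. Compounds were tested in duplicate as 2-fold series in MHB II, with DMSO as solvent control. Inoculum was a 1/2000 dilution of an OD600 ~1.0 PBS suspension.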

EKO-35 araC::acrEF = experiment: MIC susceptibility profiling, efflux platform; conditions: for Fold change of MICs: EKO-35 araC::acrEF compared to EKO-35; for Minimum Inhibitory Concentration, EKO-35 araC::acrEF: Table 13A, non-porinated, technical duplicate
How it was run: as §1

EKO-35 araC::acrBD408A = experiment: MIC susceptibility profiling, efflux platform; conditions: for Fold change of MICs: EKO-35 araC::acrBD408A compared to EKO-35; for Minimum Inhibitory Concentration, EKO-35 araC::acrBD408A: Table 13B, non-porinated, technical duplicate
How it was run: as §1

E. coli EKO-35 = experiment: microbe, parasite or virus in culture; conditions: for Fold change of MICs: EKO-35 compared to EKO-35 (reference); for Minimum inhibitory concentration (MIC), EKO-35: Table 10, without pore; for Minimum inhibitory concentration (MIC), EKO-35 / Minimum Inhibitory Concentration, EKO-35: technical duplicate; for Minimum Inhibitory Concentration, EKO-35: Table 13A, non-porinated
How it was run: as §1

E. coli ΔtolC = experiment: microbe, parasite or virus in culture; conditions: technical duplicate; for Minimum inhibitory concentration (MIC), ΔtolC: Table 10, without pore; for Minimum Inhibitory Concentration, ΔtolC: Table 13A, non-porinated
How it was run: as §1

[1] = test system: wild-type E. coli K-12 str. BW25113; experiment: microbe, parasite or virus in culture; conditions: technical duplicate; for Minimum inhibitory concentration (MIC), K-12: Table 10, without pore; for Minimum Inhibitory Concentration, K-12: Table 13A, non-porinated
How it was run: as §1

EKO-35 araC::mdtEF Pore = experiment: MIC susceptibility profiling, porinated efflux platform; conditions: for Fold changes of MICs: EKO-35 araC::mdtEF Pore compared to EKO-35-Pore; for Minimum inhibitory concentration, EKO-35 araC::mdtEF Pore: Table 14A, porinated, technical duplicate
How it was run: (§2)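 MIC values come from background-corrected OD600 readings (pre-incubation OD subtracted) after 18 h at 37 °C and 900 rpm in MHB II. Compounds were tested in duplicate as 2-fold dilutions. The inoculum came from 18 h LB cultures adjusted to OD600 ~1.0 and diluted 1/2000, and the pore-bearing strains were vancomycin-checked beforehand.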

EKO-35 araC::acrD Pore = experiment: as above; conditions: for Fold changes of MICs: EKO-35 araC::acrD Pore compared to EKO-35-Pore; for Minimum inhibitory concentration, EKO-35 araC::acrD Pore: Table 14A, porinated, technical duplicate
How it was run: as §2

EKO-35 araC::macAB Pore = experiment: as above; conditions: for Fold changes of MICs: EKO-35 araC::macAB Pore compared to EKO-35-Pore; for Minimum inhibitory concentration: EKO-35 araC::macAB Pore, technical duplicate
How it was run: as §2

EKO-35 araC::mdtBC Pore = experiment: as above; conditions: for Fold changes of MICs: EKO-35 araC::mdtBC Pore compared to EKO-35-Pore; for Minimum inhibitory concentration: EKO-35 araC::mdtBC Pore, technical duplicate
How it was run: as §2

EKO-35 araC::emrAB Pore = experiment: as above; conditions: for Fold changes of MICs: EKO-35 araC::emrAB Pore compared to EKO-35-Pore; for Minimum inhibitory concentration: EKO-35 araC::emrAB Pore, technical duplicate
How it was run: as §2

EKO-35 araC::emrKY Pore = experiment: as above; conditions: for Fold changes of MICs: EKO-35 araC::emrKY Pore compared to EKO-35-Pore; for Minimum inhibitory concentration: EKO-35 araC::emrKY Pore, technical duplicate
How it was run: as §2

EKO-35 araC::mexCD Pore = experiment: as above; conditions: for Fold changes of MICs: EKO-35 araC::mexCD Pore compared to EKO-35-Pore; for Minimum inhibitory concentration: EKO-35 araC::mexCD Pore, technical duplicate
How it was run: as §2

EKO-35 araC::acrB Pore = experiment: as above; conditions: for Fold changes of MICs: EKO-35 araC::acr-B Pore compared to EKO-35-Pore; for Minimum inhibitory concentration, EKO-35 araC::acrB Pore: Table 14A, porinated, technical duplicate
How it was run: as §2

EKO-35 araC::acrEF Pore = experiment: as above; conditions: Table 14A; porinated; technical duplicate
How it was run: as §2

[2] = test system: EKO-35 araC::acrBD408A Pore; experiment: as above; conditions: for Fold changes of MICs: EKO-35 araC::acrBD408A Pore compared to EKO-35-Pore; for Minimum inhibitory concentration: EKO-35 araC::acrBD408A Pore, technical duplicate
How it was run: as §2

EKO-35-Pore = experiment: MIC susceptibility profiling, porinated strain; conditions: for Fold changes of MICs: EKO-35-Pore compared to EKO-35-Pore (reference); for Minimum inhibitory concentration (MIC), Pore EKO-35: Table 10, with pore; for Minimum inhibitory concentration (MIC), Pore EKO-35 / Minimum inhibitory concentration, EKO-35-Pore: technical duplicate; for Minimum inhibitory concentration, EKO-35-Pore: Table 14A, porinated
How it was run: as §2

ΔtolC-Pore = experiment: microbe, parasite or virus in culture; conditions: technical duplicate; for Minimum inhibitory concentration (MIC), Pore ΔtolC: Table 10, with pore; for Minimum inhibitory concentration, ΔtolC-Pore: Table 14A, porinated
How it was run: as §2

wild-type (WT) K-12-Pore = experiment: microbe, parasite or virus in culture; conditions: technical duplicate; for Minimum inhibitory concentration (MIC), Pore K-12: Table 10, with pore; for Minimum inhibitory concentration, K-12 (WT)-Pore: Table 14A, porinated
How it was run: as §2

O=[N+]([O-])c1ccc2c(c1)C(=NO)c1cc([N+](=O)[O-])ccc1-2 [compound 11]
Fold change of MICs (EKO-35 araC::mdtBC): 1 fold
Minimum Inhibitory Concentration, EKO-35 araC::mdtBC (EKO-35 araC::mdtBC): 0.078 µg/mL
Fold change of MICs (EKO-35 araC::acrEF): 4096 fold
Minimum Inhibitory Concentration, EKO-35 araC::acrEF (EKO-35 araC::acrEF): 320 µg/mL
Fold change of MICs (EKO-35 araC::acrBD408A): 1 fold
Minimum Inhibitory Concentration, EKO-35 araC::acrBD408A (EKO-35 araC::acrBD408A): 0.078 µg/mL
Fold change of MICs (E. coli EKO-35): 1 fold
Minimum inhibitory concentration (MIC), EKO-35 (E. coli EKO-35): 0.078 µg/mL
Minimum Inhibitory Concentration, EKO-35 (E. coli EKO-35): 0.078 µg/mL
susceptibility of EKO-35 to the compound (E. coli EKO-35; synthetic efflux substrates of FIG. 12): susceptible
Minimum inhibitory concentration (MIC), ΔtolC (E. coli ΔtolC): 0.156 µg/mL
Minimum Inhibitory Concentration, ΔtolC (E. coli ΔtolC): 0.156 µg/mL
Minimum inhibitory concentration (MIC), K-12 [1]: 320 µg/mL
Minimum Inhibitory Concentration, K-12 [1]: 320 µg/mL
Fold changes of MICs (EKO-35 araC::mdtEF Pore): 64 fold
Minimum inhibitory concentration, EKO-35 araC::mdtEF Pore (EKO-35 araC::mdtEF Pore): 5 µg/mL
Fold changes of MICs (EKO-35 araC::acrD Pore): 4 fold
Minimum inhibitory concentration, EKO-35 araC::acrD Pore (EKO-35 araC::acrD Pore): 0.313 µg/mL
Fold changes of MICs (EKO-35 araC::macAB Pore): 1 fold
Minimum inhibitory concentration (EKO-35 araC::macAB Pore): 0.078 µg/mL
Fold changes of MICs (EKO-35 araC::mdtBC Pore): 1 fold
Minimum inhibitory concentration (EKO-35 araC::mdtBC Pore): 0.078 µg/mL
Fold changes of MICs (EKO-35 araC::emrAB Pore): 16 fold
Minimum inhibitory concentration (EKO-35 araC::emrAB Pore): 1.25 µg/mL
Fold changes of MICs (EKO-35 araC::emrKY Pore): 1 fold
Minimum inhibitory concentration (EKO-35 araC::emrKY Pore): 0.078 µg/mL
Fold changes of MICs (EKO-35 araC::mexCD Pore): 8 fold
Minimum inhibitory concentration (EKO-35 araC::mexCD Pore): 0.625 µg/mL
Fold changes of MICs (EKO-35 araC::acrB Pore): 1024 fold
Minimum inhibitory concentration, EKO-35 araC::acrB Pore (EKO-35 araC::acrB Pore): 80 µg/mL
Minimum inhibitory concentration, EKO-35 araC::acrEF Pore (EKO-35 araC::acrEF Pore): 80 µg/mL
Fold changes of MICs [2]: 1 fold
Minimum inhibitory concentration [2]: 0.078 µg/mL
Fold changes of MICs (EKO-35-Pore): 1 fold
Minimum inhibitory concentration (MIC), Pore EKO-35 (EKO-35-Pore): 0.078 µg/mL
Minimum inhibitory concentration, EKO-35-Pore (EKO-35-Pore): 0.078 µg/mL
Minimum inhibitory concentration (MIC), Pore ΔtolC (ΔtolC-Pore): 0.156 µg/mL
Minimum inhibitory concentration, ΔtolC-Pore (ΔtolC-Pore): 0.156 µg/mL
Minimum inhibitory concentration (MIC), Pore K-12 (wild-type (WT) K-12-Pore): 80 µg/mL
Minimum inhibitory concentration, K-12 (WT)-Pore (wild-type (WT) K-12-Pore): 80 µg/mL

deoxycholate
Fold change of MICs (EKO-35 araC::mdtBC): 4 fold
efflux pump-mediated resistance vs EKO-35 (EKO-35 araC::mdtBC; MdtBC): conferred resistance
Minimum Inhibitory Concentration, EKO-35 araC::mdtBC (EKO-35 araC::mdtBC): 1500 µg/mL
Fold change of MICs (EKO-35 araC::acrEF): 4 fold
Minimum Inhibitory Concentration, EKO-35 araC::acrEF (EKO-35 araC::acrEF): 1500 µg/mL
Fold change of MICs (EKO-35 araC::acrBD408A): 1 fold
Minimum Inhibitory Concentration, EKO-35 araC::acrBD408A (EKO-35 araC::acrBD408A): 375 µg/mL
Fold change of MICs (E. coli EKO-35): 1 fold
Minimum inhibitory concentration (MIC), EKO-35 (E. coli EKO-35): 375 µg/mL
Minimum Inhibitory Concentration, EKO-35 (E. coli EKO-35): 375 µg/mL
Minimum inhibitory concentration (MIC), ΔtolC (E. coli ΔtolC): 187.5 µg/mL
Minimum Inhibitory Concentration, ΔtolC (E. coli ΔtolC): 187.5 µg/mL
Minimum inhibitory concentration (MIC), K-12 [1]: 1500 µg/mL
Minimum Inhibitory Concentration, K-12 [1]: 1500 µg/mL
Fold changes of MICs (EKO-35 araC::mdtEF Pore): 8 fold
Minimum inhibitory concentration, EKO-35 araC::mdtEF Pore (EKO-35 araC::mdtEF Pore): 1500 µg/mL
Fold changes of MICs (EKO-35 araC::acrD Pore): 8 fold
Minimum inhibitory concentration, EKO-35 araC::acrD Pore (EKO-35 araC::acrD Pore): 1500 µg/mL
Fold changes of MICs (EKO-35 araC::macAB Pore): 1 fold
Minimum inhibitory concentration (EKO-35 araC::macAB Pore): 187.5 µg/mL
Fold changes of MICs (EKO-35 araC::mdtBC Pore): 4 fold
Minimum inhibitory concentration (EKO-35 araC::mdtBC Pore): 750 µg/mL
Fold changes of MICs (EKO-35 araC::emrAB Pore): 4 fold
Minimum inhibitory concentration (EKO-35 araC::emrAB Pore): 750 µg/mL
Fold changes of MICs (EKO-35 araC::emrKY Pore): 1 fold
Minimum inhibitory concentration (EKO-35 araC::emrKY Pore): 187.5 µg/mL
Fold changes of MICs (EKO-35 araC::mexCD Pore): 2 fold
Minimum inhibitory concentration (EKO-35 araC::mexCD Pore): 375 µg/mL
efflux pump-mediated resistance vs EKO-35-Pore (EKO-35 araC::mexCD Pore; MexCD, OM compromised): no longer associated MexCD with resistance
Fold changes of MICs (EKO-35 araC::acrB Pore): 8 fold
Minimum inhibitory concentration, EKO-35 araC::acrB Pore (EKO-35 araC::acrB Pore): 1500 µg/mL
Minimum inhibitory concentration, EKO-35 araC::acrEF Pore (EKO-35 araC::acrEF Pore): 1500 µg/mL
Fold changes of MICs [2]: 1 fold
Minimum inhibitory concentration [2]: 93.75 µg/mL
Fold changes of MICs (EKO-35-Pore): 1 fold
Minimum inhibitory concentration (MIC), Pore EKO-35 (EKO-35-Pore): 187.5 µg/mL
Minimum inhibitory concentration, EKO-35-Pore (EKO-35-Pore): 187.5 µg/mL
Minimum inhibitory concentration (MIC), Pore ΔtolC (ΔtolC-Pore): 46.875 µg/mL
Minimum inhibitory concentration, ΔtolC-Pore (ΔtolC-Pore): 46.875 µg/mL
Minimum inhibitory concentration (MIC), Pore K-12 (wild-type (WT) K-12-Pore): 1500 µg/mL
Minimum inhibitory concentration, K-12 (WT)-Pore (wild-type (WT) K-12-Pore): 1500 µg/mL
